From patent publication US20120094007A1, “METHOD FOR THE IMMOBILIZATION OF CATIONIC ACTIVE INGREDIENTS ON SURFACES” (BASF SE, priority 2010, published 2012)
Where no end group is shown, it is not given here.

Key:
[1] = test system: Staphylococcus epidermidis DSM1798; assay: static biofilm assay on antimicrobially finished silicone surfaces (cfu/cm^2); format: cell-based; details: silicone surface, conjugates adsorbed alone from 10 mg/ml (P18 equivalents) in PBS; after washing
Procedure: (§1) The effect of the antimicrobial finishing of the investigated surfaces was determined by means of a […] biofilm assay. For this, the surfaces to be tested were cut into round disks which fit into the holes of 24-well microtiter plates. In order to prevent the surfaces from slipping during the assay, the surfaces were immobilized on the bottom of the microtiter plates with the help of glass joint grease. The formation of biofilms was carried out starting from a preculture. For this, 20 ml of the standard commercial TSBY medium (Difco Laboratories, MI, USA) were inoculated with the help of a steady-state overnight culture of Staphylococcus epidermidis DSM1798, Escherichia coli DSM 5698, Proteus mirabilis DSM 4479 or Escherichia coli BL21 (DE3) with an optical density of 0.1. The preculture was incubated for 2 to 4 hours with agitation (at 200 rpm) and 37° C. until an optical density of from 2 to 3 was reached. In order to start the biofilm assay, the preculture was diluted to an optical density of 0.0004 in 5% TSBY in saline (0.9% NaCl) (ca. 10^5 cfu/ml). 1 ml of this was placed onto the surfaces in the 24-well plate and then incubated at 37° C. with gentle vibration at 50 rpm (revolutions per minute), so that a biofilm could form on the surface. The biofilm on the surfaces was analyzed after one hour (1 h) and after 24 hours (24 h) (and optionally 5 hours). For this, the planktonic cells were removed. The surfaces were then removed from the microtiter plate and briefly washed in sodium chloride solution, saline (0.9% NaCl). The adherent cells in the biofilm were then detached from the surface by means of an ultrasound treatment. For this purpose, the surfaces were transferred to a Falcon tube (50 ml volume) with 2 ml of saline and subjected to ultrasound for five minutes in an ultrasound water bath. The resulting bacterial suspension was diluted and plated out on TSBY agar plates. After 18 hours at 37, the resulting colonies were counted and back-calculated to the number of cells on the surface.

Escherichia coli = assay: as above; format: cell-based; details: silicone surface, after intensive washing
Procedure: as §1

PEI-P18 conjugates: polyethyleneimine (25 KDa) activated with SMCC and reacted with P18cys (KWKLFKKIPKFLHLAKKFC; SEQ ID NO: 27) (also: conjugated to polyethyleneimine (25 kDa) via SMCC)
formation of a biofilm due to S. epidermidis [1]: able to prevent the formation of a biofilm | biofilm formation by E. coli (Escherichia coli; conjugates adsorbed alone from 10 mg/ml (P18 equivalents) in PBS): not retained on the surface so strongly that after intensive washing enough active ingredient is present to prevent biofilm formation | biofilm formation by E. coli (Escherichia coli; two-step method: hydrophobin A coating (0.5 mg/ml), then conjugates 10 mg/ml (P18 equivalents) in PBS): effective even after intensive washing
